Results on one compound are retold here after patent US6838462B2, “Insecticidal azoles” (Bayer CropScience LP, priority 2001, dated 2005).

Common to all, as to format: in vivo
Test [1] has as its system Adults of Ctenocephalides felis, strain "Georgi". As to the kind of experiment: Test with cat fleas / oral uptake. The following applies: 24 h, read-out: % action (mortality of larvae). The method, then: Test with Cat Fleas/Oral Uptake
Test animals: Adults of Crenocephalides felis
Solvent: Dimethyl sulphoxide (DMSO)
To produce a suitable preparation, a suitable solution of active compound is prepared from 20 mg of active compound and 1 ml of DMSO. 20 μl of this formulation are added to 4 ml of citrated cattle blood and stirred.
20 unfed adult fleas (Ctenocephalides felis, strain “Georgi”) are placed into a chamber (Ø 5 cm) whose top and bottom are closed with gauze. A metal cylinder whose underside is covered with parafilm is placed onto the chamber. The cylinder contains the 4 ml of blood/active compound formulation which can be taken up by the fleas through the parafilm membrane. Whereas the blood is warmed to 37° C., the temperature in the area of the flea chambers is adjusted to 25° C. Controls are mixed with the same volume of DMSO, without addition of a compound. The determinations are carried out triplicate.
After 24 h, the mortality in % is determined.
Compounds which effect an at least 25% kill of the fleas within 24 h are judged to be effective.

Another test deals with Lucilia cuprina larvae. The experiment in a line: Blowfly larvae test / development-inhibitory action. The following applies: 48 h, read-out: % action (mortality of larvae). The method, then: Blowfly Larvae Test/Development-Inhibitory Action
Test animals: Lucilia cuprina larvae
(§1) Solvent: Dimethyl sulphoxide
(§2) 20 mg of active compound are dissolved in one ml of dimethyl sulphoxide. To prepare a suitable formulation, the solution of active compound is diluted with water to the particular concentration desired.
About 20 Lucilia cuprina larvae are introduced into a test tube which contains about 1 cm^3 of horsemeat and 0.5 ml of the preparation of active compound to be tested. The activity of the preparation of active compound is determined after 48 hours as the mortality of the larvae in %.
The test tubes are then transferred into a beaker whose bottom is covered with sand. After a further 12 days, the test tubes are removed and the pupae and flies are counted. The development-inhibitory action is stated as inhibition of hatching in % (ratio of pupae to flies that have hatched) after 1.5 times the development period of an untreated control.

Test [2] has as its system Third larval stages of Periplanela americana. As to the kind of experiment: Test with cockroaches - dip treatment. The following applies: dip treatment 60 seconds, after 7 days, 100% = all cockroach larvae killed. How it is done:
Test with Cockroaches—Dip Treatment
Test animals: Third larval stages of Periplanela americana
as §1, §2
20 ml of this preparation of active compound are pipetted into tubes (Ø 1.5 cm, H 10 cm). 4 cockroach larvae are anaesthetized with CO2 and transferred into a tube (Ø 1.2 cm, H 9 cm) with 3 holes (bottom and 5 cm below the upper rim). […] The tube is dipped into the preparation of active compound for 60 seconds, with all cockroach larvae being wetted completely. After the liquid has run off, the cockroach larvae are transferred to filter discs in PP dishes (Ø 9.7 cm. H 8 cm).
After 2 and 24 hours and after 7 days, the activity of the preparation of active compound is determined. 100% means that all cockroach larvae have been killed; 0% means that none of the cockroach larvae have been killed.

Take `Cc1s/c(=N\C#N)n2c1N(Cc1ccc(Cl)nc1)CC2` [Compound I-1, 1-[6-Chloro-3-pyridylmethyl]-5-cyanoimino-7-methyl-4.5-dihydro[1,3]diazolano-[1,2-c][1,3]thiazoline]: the mortality (usually the percentage killed) at 100 ppm in test [1] was 30%; with Lucilia cuprina larvae it was 100%. Further, in the test with Lucilia cuprina larvae, the mortality at 300 ppm came to 100%. Further, in the test with Lucilia cuprina larvae, the mortality at 1000 ppm came to 100%. For the same compound, the “% action (7 d)” value in test [2] (100 ppm), in test [2] (300 ppm) and in test [2] (1000 ppm) was 100% each time.
